Values after ≈ are worked out from the molar mass of the structure shown.
These molecules were tested on Mycobacterium tuberculosis (assay: Antimycobacterial activity against isoniazid-resistant Mycobacterium tuberculosis after 2 weeks by BACTEC 460 radiometric method). Conditions: 336 h.
Format: functional
`COc1cc2c(cc1OC)C1=NN(C(=O)Nc3ccc(C)cc3C)C(c3ccncc3)C1C2` (stereo unspecified) was tested, and the MIC was over 12.5 µM. With `COc1cc2c(cc1OC)C1=NN(C(=O)Nc3ccc(C)cc3C)C(c3ccccc3Cl)C1C2` (stereo unspecified) the MIC was 10 µM (≈ 4.76 µg/mL). `COc1cc2c(cc1OC)C1=NN(C(=O)Nc3ccc(C)cc3C)C(c3ccc(F)cc3)C1C2` (stereo unspecified) gave an MIC of 12.5 µM (≈ 5.74 µg/mL). `COc1ccc(C2C3Cc4cc(OC)c(OC)cc4C3=NN2C(=O)Nc2ccc(C)cc2C)cc1OC` (stereo unspecified) was tested, and the MIC was over 12.5 µM. With `COc1cc2c(cc1OC)C1=NN(C(=O)Nc3ccc(C)cc3C)C(c3ccccc3)C1C2` (stereo unspecified) the MIC was over 12.5 µM. `COc1ccc(C2C3Cc4cc(OC)c(OC)cc4C3=NN2C(=O)Nc2ccc(C)cc2C)cc1` (stereo unspecified) showed an MIC of over 12.5 µM. For `COc1cc2c(cc1OC)C1=NN(C(=O)Nc3c(C)cccc3C)C(c3ccncc3)C1C2` (stereo unspecified), the MIC was over 12.5 µM. `COc1cc2c(cc1OC)C1=NN(C(=O)Nc3c(C)cccc3C)C(c3ccccc3Cl)C1C2` (stereo unspecified) gave an MIC of 12.5 µM (≈ 5.95 µg/mL). In the case of `COc1cc2c(cc1OC)C1=NN(C(=O)Nc3c(C)cccc3C)C(c3ccc(F)cc3)C1C2` (stereo unspecified), the MIC was 10 µM (≈ 4.6 µg/mL). `COc1ccc(C2C3Cc4cc(OC)c(OC)cc4C3=NN2C(=O)Nc2c(C)cccc2C)cc1OC` (stereo unspecified) showed an MIC of over 12.5 µM. With `COc1cc2c(cc1OC)C1=NN(C(=O)Nc3c(C)cccc3C)C(c3ccccc3)C1C2` (stereo unspecified) the MIC was over 12.5 µM. For `COc1ccc(C2C3Cc4cc(OC)c(OC)cc4C3=NN2C(=O)Nc2c(C)cccc2C)cc1` (stereo unspecified), the MIC was over 12.5 µM. In the case of `COc1cc2c(cc1OC)C1=NN(C(N)=S)C(c3ccncc3)C1C2` (stereo unspecified), the MIC was 10 µM (≈ 3.54 µg/mL). With `COc1cc2c(cc1OC)C1=NN(C(N)=S)C(c3ccccc3Cl)C1C2` (stereo unspecified) the MIC was 10 µM (≈ 3.88 µg/mL). `COc1cc2c(cc1OC)C1=NN(C(N)=S)C(c3ccc(F)cc3)C1C2` (stereo unspecified) gave an MIC of 6.25 µM (≈ 2.32 µg/mL). With `COc1ccc(C2C3Cc4cc(OC)c(OC)cc4C3=NN2C(N)=S)cc1OC` (stereo unspecified) the MIC was 12.5 µM (≈ 5.17 µg/mL). For `COc1cc2c(cc1OC)C1=NN(C(N)=S)C(c3ccccc3)C1C2` (stereo unspecified), the MIC was 12.5 µM (≈ 4.42 µg/mL). `COc1ccc(C2C3Cc4cc(OC)c(OC)cc4C3=NN2C(N)=S)cc1` (stereo unspecified) showed an MIC of over 12.5 µM. Molecule `NNC(=O)c1ccncc1` [ISONIAZID] has an MIC of 12.5 µM (≈ 1.71 µg/mL). For `CO[C@H]1/C=C/O[C@@]2(C)Oc3c(C)c(O)c4c(O)c(c(/C=N/N5CCN(C)CC5)c(O)c4c3C2=O)NC(=O)/C(C)=C\C=C\[C@H](C)[C@H](O)[C@@H](C)[C@@H](O)[C@@H](C)[C@H](OC(C)=O)[C@@H]1C` [RIFAMPIN], the MIC was 3.12 µM (≈ 2.57 µg/mL).

The molecules below were run on Mycobacterium tuberculosis (assay: Ratio of isoniazid MIC to compound MIC for isoniazid-resistant Mycobacterium tuberculosis). Conditions: not given.
Format: functional
`COc1cc2c(cc1OC)C1=NN(C(N)=S)C(c3ccc(F)cc3)C1C2` (stereo unspecified) gave a Ratio of 2.
